Laboratory results as given in US8450336B2, “Use of D-serine derivatives for the treatment of anxiety disorders” (priority 2006, dated 2013).
“And” between values parts separate entries of the source, which are not always exact repeats. Equal entries are not always repeated.

What was measured:
[1] = tested on: Sprague-Dawley rats; experiment: Conditioned Emotional Response (CER) assay; assay type: in vivo; settings: for Total number lever press: 40 min test session; for Total number lever press / Suppression ratio (SR): mean±SEM; for Suppression ratio (SR): at least 10 rats, *p<0.05 vs vehicle; for Efficacy in the CER assay (effect on SR), in words: rat, in vivo; for Magnitude of the SR effect compared with diazepam: diazepam 2 mg/kg i.p
Procedure: Male, Sprague-Dawley rats of approximate body weight 350-450 g were placed on a restricted food diet (45 min free access per day) and trained over a 1-2 week period to press a lever for food reward (45 mg food pellet). […] Test session length was for a 40 min test period, and test sessions were run 5 days/week. Once stable response rates were attained, 2 periods of a 2 min light and tone cue (conditioning stimulus, CS) was introduced into the test session. The 2 min CS was terminated by a 0.5 s unavoidable footshock of 0.3-0.8 mA intensity (UCS). The first CS-UCS was at approximately 10 min (range 5-15 min) and the second CS-UCS pairing at approximately 30 min (range 25-35 min) within the test session. On drug test days, and occasional training days, footshock was not delivered. The number of lever presses recorded during the two 2 min CS periods (response A), and the number of lever presses recorded in the 2 min periods immediately prior to the two CS periods (response B) were measured and a suppression ratio (SR) was calculated according to the formula (A/A+B). Thus a SR of 0 reflects no responding during the CS periods, i.e. a complete suppression of lever pressing for food by the CS, and a SR of 0.5 reflects equivalent responding during both the CS and 2 min period prior to CS, i.e. no suppression of lever pressing for food by the CS. Thus in drug untreated animals, SR value was typically 0-0.1 and established anti-anxiety agents such as diazepam increased this value to 0.4-0.5 (for literature examples see Stanhope and Dourish (1996) Psychopharmacol. 128: 293-303; Mirza et al (2005) Psychopharmacol. 180: 159-168). In addition to SR, the total number of lever presses emitted by the animals over the 40 min test session was measured.
Drug testing was conducted according to a repeated measures design, with each animal receiving each dose of drug treatment or vehicle control in a balanced design. Typically drug testing was conducted on Tuesdays and Fridays, with the animals drug untreated but otherwise run for baseline purposes. In each experiment a standard dose of diazepam (2 mg/kg i.p) was included as a positive control.

[2] = tested on: CD-1 mice; experiment: Marble Burying Assay; assay type: in vivo; settings: for Number of marbles buried: 22 marbles, 30 min, mean±SEM, at least 8 mice
Procedure: (§1) Male, experimentally naïve CD-1 mice of body weight range 25-35 g were used in these studies. Following a pretreatment with test drug or vehicle control the animals were singly placed within a Perspex chamber of dimension (48 cm×28 cm×20 cm; L×W×H) containing fresh sawdust bedding onto which 22 marbles were evenly spaced on the surface. After a 30 min period, the mice were removed and the number of marbles that were covered by at least ⅔rd by sawdust were counted as buried. Typically mice will bury a significant proportion of the marbles, probably to hide the potential threat posed by the marbles which represent a novel stimulus to the animal. […] One interpretation for this effect is that diazepam reduces the threat perceived to the animal by the close presence of the marbles (Broekkamp et al, 1986 Eur. J. Pharmacol. 126: 223-229; Nicolas et al, 2006 Eur. J. Pharmacol. 547; 106-115). In a separate group of sex, age and weight matched CD-1 mice, equivalent doses of test compound were evaluated on motor function using a fixed speed (16 r.p.m) rotorod assay. The best score from 3 attempts was recorded, with the maximum test duration of 60 s. Testing was conducted at 40 min post injection, i.e. approximate mid-point of the marble-burying assay.
Drug testing was run according to a between subjects design. […] The (S)-enantiomer of Lacosamide was ineffective in this assay.

[3] = tested on: CD-1 mice; experiment: Fixed speed (16 r.p.m) rotorod assay of motor function; assay type: in vivo; settings: median of at least 4 mice, maximum score=60 s, 40 min post injection
Procedure: as §1

[4] = tested on: CD-1 mice; settings: at doses with no obvious effect on general motor function; literature; cited from earlier work
[5] = tested on: Sprague-Dawley rats; settings: drug untreated animals typically 0-0.1; literature examples; cited from earlier work
[6] = dose 3 (mg/kg), i.p or oral route
[7] = dose 10 (mg/kg), i.p or oral route
[8] = dose 30 (mg/kg), i.p or oral route
[9] = dose 2 (2 mg/kg i.p, positive control), 2 mg/kg

Compound | melting point [°C] | Total number lever press ([1]; dose 30 (mg/kg)) | Suppression ratio (SR) ([1]; dose 30 (mg/kg)) | Efficacy in the CER assay (effect on SR), in words [1] | Efficacy in the marble burying assay, in words ([2]; mouse, in vivo) | Magnitude of the SR effect compared with diazepam [1] | Total number lever press ([1]; dose 3 (mg/kg)) | Suppression ratio (SR) ([1]; dose 3 (mg/kg)) | Total number lever press ([1]; dose 10 (mg/kg)) | Suppression ratio (SR) ([1]; dose 10 (mg/kg)) | Rotorod score ([3]; dose 3) [s] | Rotorod score ([3]; dose 10) [s] | Rotorod score ([3]; dose 30) [s] | Number of marbles buried [2, 6] | Number of marbles buried [2, 7] | Number of marbles buried [2, 8] | further results
CC(=O)NC(COC(F)F)C(=O)NCc1ccccc1 (stereo not drawn) | 173.3 | – | – | – | – | – | – | – | – | – | – | – | – | – | – | – | –
COC[C@H](NC(C)=O)C(=O)NCc1ccccc1 (single isomer, unassigned) [(S)-enantiomer of Lacosamide, reference compound] | – | 1403 ± 158 | 0.06 ± 0.03 | ineffective | ineffective | – | – | – | – | – | – | – | – | – | – | – | –
CC(=O)N[C@H](COC(F)F)C(=O)NCc1ccc(Cl)cc1 [Example 23.1, (2R)-2-(acetylamino)-N-(4-chlorobenzyl)-3-(difluoromethoxy)propanamide] | – | 578 ± 79 | 0.26 ± 0.04* | active in increasing the SR in a dose-related manner | active in decreasing marble burying in a dose-related manner | equivalent to diazepam | 1091 ± 169 | 0.09 ± 0.04 | 1034 ± 131 | 0.17 ± 0.04* | 60 | 60 | 60 | 15.8 ± 0.8 | 12.3 ± 1.2 | 2.0 ± 0.7 | –
COC[C@@H](NC(C)=O)C(=O)NCc1ccccc1 [Lacosamide, (+)-(2R)-2-(acetylamino)-N-benzyl-3-methoxypropanamide, reference compound] | – | 727 ± 123 | 0.36 ± 0.07* | – | – | equivalent to diazepam | 1166 ± 185 | 0.16 ± 0.07 | 1121 ± 138 | 0.18 ± 0.08 | 60 | 60 | 60 | 16.8 ± 0.8 | 18.0 ± 0.7 | 12.4 ± 1.4 | Efficacy in the CER assay (effect on SR value), in words ([1]; doses 3-30 mg/kg i.p.): significantly increasing the SR value; Efficacy in the marble burying assay, in words ([2]; oral doses of 3-30 mg/kg, compared to vehicle pretreated controls): significantly reducing the number of marbles buried
CC(=O)N[C@H](COC(F)F)C(=O)NCc1ccccc1 [Example 19.1, (2R)-2-(Acetylamino)-N-benzyl-3-(difluoromethoxy)propanamide] | 186.9 | 724 ± 135 | 0.38 ± 0.04* | active in increasing the SR in a dose-related manner | active in decreasing marble burying in a dose-related manner | equivalent to diazepam | 1169 ± 145 | 0.16 ± 0.03 | 1093 ± 169 | 0.15 ± 0.05 | 60 | 60 | 13 | 17.0 ± 1.1 | 9.7 ± 2.3 | 2.3 ± 2.0 | –
CN1C(=O)CN=C(c2ccccc2)c2cc(Cl)ccc21 [Diazepam, reference compound] | – | – | – | – | produced a similar profile | – | – | – | – | – | 40 | – | – | 2.0 ± 0.8 | – | – | Total number lever press [1, 9]: 899 ± 146 and 1015 ± 155 and 1151 ± 138 and 1239 ± 183; Suppression ratio (SR) [1, 9]: 0.39 ± 0.04* and 0.44 ± 0.03* and 0.32 ± 0.07*; Effect of anti-anxiety drugs on marbles buried by mice, in words [4]: reduce the number of marbles buried; SR value typically reached with established anti-anxiety agents [5]: 0.4-0.5; Rotorod score ([3]; dose 0.3): 60 s; Rotorod score ([3]; dose 1): 60 s; Number of marbles buried ([2]; dose 0.3, i.p or oral route): 12.6 ± 1.4; Number of marbles buried ([2]; dose 1, i.p or oral route): 9.4 ± 1.7; Number of marbles buried ([2]; dose 2, i.p or oral route): 2.2 ± 1.2
CC(=O)N[C@H](COC(F)F)C(=O)NCc1ccc(F)cc1 [Example 20.1, (2R)-2-(Acetylamino)-3-(difluoromethoxy)-N-(4-fluorobenzyl)propanamide] | 162.7 | 587 ± 84 | 0.43 ± 0.05* | active in increasing the SR in a dose-related manner | active in decreasing marble burying in a dose-related manner | equivalent to diazepam | 1188 ± 95 | 0.17 ± 0.06 | 1170 ± 98 | 0.28 ± 0.07* | 60 | 60 | 60 | 15.0 ± 1.2 | 14.9 ± 0.9 | 10.3 ± 1.5 | Total number lever press ([1]; dose 20 (mg/kg)): 849 ± 78; Suppression ratio (SR) ([1]; dose 20 (mg/kg)): 0.33 ± 0.06*
